Results published in ChEMBL document CHEMBL2407082, “Tetrahydroquinoline-derived macrocyclic toolbox: the discovery of antiangiogenesis agents in zebrafish assay” (ACS Med Chem Lett, 2013).
The source made the active and inactive calls. No cut-off for these calls is given here.

Assays:
Danio rerio [1] = species: Danio rerio; assay: Antiangiogenic activity in transgenic zebrafish embryo expressing EGFP at 2.5 uM after 36 hrs post fertilization by inverted microscopic analysis; assay type: functional, organism-based
Danio rerio [2] = species: Danio rerio; assay: Inhibition of AB zebrafish early embryo development assessed as delay in epiboly at 2.5 uM after 10 hrs post fertilization by inverted microscopic analysis; assay type: functional, organism-based

Compound	inhibition (Danio rerio [1])	inhibition (Danio rerio [2])
C=CCOC[C@H](Cc1ccccc1)NC(=O)C[C@@H]1Nc2cc3c(cc2[C@@H]2OC(C)(C)O[C@@H]12)OCO3	Active	
C=CCOC(=O)N1c2cc3c(cc2[C@@H]2OC(C)(C)O[C@H]2[C@@H]1CCN(Cc1ccc(F)cc1)C(=O)[C@H](CC(C)C)NC(=O)OCC1c2ccccc2-c2ccccc21)OCO3		Active
CC[C@H](C)[C@@H]1NC(=O)C[C@H]2[C@@H]3OC(C)(C)O[C@H]3c3cc4c(cc3N2C/C=C\COC1=O)OCO4		Active
C=CCOC(=O)N1c2cc3c(cc2[C@@H]2OC(C)(C)O[C@H]2[C@@H]1CCO)OCO3	Active	Active
CC(C)C[C@@H]1NC(=O)C[C@H]2[C@@H]3OC(C)(C)O[C@H]3c3cc4c(cc3N2C/C=C\COC1=O)OCO4	Active	
